From ChEMBL document CHEMBL5608141, “Identification of compartment-specific drug sensitivities in CRC organoid-stroma co-cultures” (2024)

Experiments:
Type in all cases: functional, Homo sapiens
Design in all cases: dose or concentration left out as unconfirmed
[1] = system: Colon cancer organoid; assay: Identification of compartment-specific drug sensitivities in O14 CRC organoid-stroma F14 CAF co-cultures. Organoid is transduced with Lucferase2-P2A-EGFP lentivirus, fibroblast with Renilla-dsRed lentivirus. Dual-Glo Luciferase assay is used to report viability data.
[2] = system: Colon cancer organoid; assay: Identification of compartment-specific drug sensitivities in O06 CRC organoid-stroma F06 CAF co-cultures. Organoid is transduced with Lucferase2-P2A-EGFP lentivirus, fibroblast with Renilla-dsRed lentivirus. Dual-Glo Luciferase assay is used to report viability data.
[3] = system: Colon cancer organoid; assay: Identification of compartment-specific drug sensitivities in O20 CRC organoid-stroma F20 CAF co-cultures. Organoid is transduced with Lucferase2-P2A-EGFP lentivirus, fibroblast with Renilla-dsRed lentivirus. Dual-Glo Luciferase assay is used to report viability data.
[4] = Transduced with Lucferase2-P2A-EGFP lentivirus
[5] = Transduced with Renilla-dsRed lentivirus

| Compound | Cell Viability [1, 4] | Cell Viability [1, 5] | Cell Viability [2, 4] | Cell Viability [2, 5] | Cell Viability [3, 4] | Cell Viability [3, 5] |
| --- | --- | --- | --- | --- | --- | --- |
| Cn1nc(C(F)(F)F)cc1-c1cnc(N2CCc3cc(S(=O)(=O)Nc4c(F)cc(Cl)cc4F)cc(N4CCCC4=O)c32)nc1 [TP-020] | 113.877% | 116.294% | 69.3758% | 110.898% | 86.7802% | 95.2287% |
| c1ccc2oc(-c3csc(C4CCN(Cc5nc6ncccc6[nH]5)CC4)n3)cc2c1 | 115.362% | 96.8387% | 118.221% | 124.83% | 55.8704% | 105.216% |
| CO[C@@H](C)c1c(Nc2ccc([C@H](N(C)C(=O)C3CCS(=O)(=O)CC3)C(F)(F)F)cc2)cnc2cc(Cl)nn12 [NVS-MALT1] | 78.8073% | 82.3583% | 54.3511% | 83.5282% | 88.0389% | 98.697% |
| CC(C)Oc1ccc(-c2c[nH]cc2CN(C)CCN)cc1 | 53.8658% | 109.482% | 47.5822% | 178.793% | 47.8011% | 252.195% |
| CCCCN(Cc1ccccc1)C(=O)c1ccc(S(=O)(=O)Nc2ccccc2)cc1 | 91.6685% | 100.658% | 68.2046% | 126.816% | 74.981% | 116.955% |
| O=C(NNS(=O)(=O)c1ccccc1)c1cc(-c2ccnnc2)ccc1F [WM-2474] | 98.8891% | 109.079% | 92.1572% | 93.3483% | 104.944% | 126.08% |
| C[C@H]1CCCN1Cc1nc2cc(NC(=O)c3ccc4cnccc4c3)ccc2[nH]1 | 76.6817% | 109.65% | 122.515% | 131.721% | 98.7446% | 149.477% |
| COc1cc(-c2cn([C@H]3CCc4ccccc4N(CC(F)(F)F)C3=O)nn2)ccc1-n1ccc(C)n1 | 96.3015% | 79.1491% | 66.2416% | 74.3796% | 70.0794% | 119.033% |
| COc1cc(N2CCC(O)CC2)ccc1Nc1cc(Nc2ccccc2S(=O)(=O)C(C)C)c2cc[nH]c2n1 | 92.4485% | 85.3579% | 85.241% | 81.2438% | 108.341% | 84.332% |
| CCC(=O)N1CCN(c2ccc(-n3c(=O)ccc4cnc5ccc(-c6cnc7ccccc7c6)cc5c43)cc2C(F)(F)F)CC1 [TORIN1] | 10.1866% | 12.2493% | 4.705% | 40.1911% | 7.451% | 44.8651% |
| CN1CCN(Cc2cc(NC(=O)c3ccc4c(c3)CN(c3ccccc3)CC4)cc(C(F)(F)F)c2)CC1 | 122.837% | 90.754% | 105.854% | 147.303% | 90.0307% | 84.0381% |
| C[C@H](c1ccc(F)cc1)N(Cc1ccc(Cl)c(C(=O)O)c1)C(=O)c1cnc2ccccc2c1 [PF-05257137] | 108.547% | 109.197% | 94.0157% | 76.638% | 147.232% | 103.742% |
| CN(C)C(=O)c1ccc(-c2cc(C(=O)N[C@@H]3CCc4ccccc43)no2)cc1O | 90.3054% | 109.902% | 113.879% | 93.2478% | 99.2292% | 104.475% |
| Cc1cc(C)cc([C@@H]2c3cc(C)ccc3NC(=O)CN2C(=O)c2ccc(Br)s2)c1 | 110.484% | 405.65% | 107.168% | 464.523% | 135.909% | 541.943% |
| CN(C)C(=O)Cn1cc(-c2ccc(-c3cncc4ccccc34)cc2)cn1 | 88.4928% | 18.4119% | 83.3121% | 47.4852% | 98.3492% | 25.8647% |
| COc1cccc2c1c(O)c(C(=O)N(C)c1ccc(C(F)(F)F)cc1)c(=O)n2C [TASQUINIMOD] | 112.754% | 82.8858% | 78.5663% | 130.265% | 64.5374% | 99.9703% |
| O=C1CCc2cc(Nc3cc(OC4CCOCC4)c([N+](=O)[O-])cc3Cl)ccc2N1 | 98.9348% | 106.803% | 74.579% | 100.938% | 150.133% | 114.972% |
| Cc1nnc2c3ccccc3c(N[C@@H](C)[C@H](c3ccccc3)N(C)C)nn12 | 110.519% | 106.748% | 95.7989% | 115.114% | 82.8594% | 127.368% |
| C=CC(=O)Nc1ccc2[nH]c(=O)n(C3CCN(Cc4ccc(-c5nc6cc[nH]c(=O)c6cc5-c5ccccc5)cc4)CC3)c2c1 [Borussertib] | 60.6786% | 71.4907% | 51.8578% | 132.383% | 47.6492% | 149.193% |
